BigSolDB 2.1

Cc1nc2n(c(=O)c1CCN1CCC(c3noc4cc(F)ccc34)CC1)CCCC2
solubility (mole fraction)
Settings | in ethanol | in methanol | in water
283.15 K | 0.00105 | 0.00239 | 4.63e-08
283.16 K | 0.00104 | 0.00239 | 4.63e-08
288.15 K | 0.00138 | 0.00294 | 6.24e-08
288.16 K | 0.00138 | 0.00294 | 6.24e-08
293.15 K | 0.0017 | 0.00363 | 8.15e-08
293.16 K | 0.0017 | 0.00363 | 8.15e-08
298.15 K | 0.00216 | 0.00443 | 1.08e-07
298.16 K | – | 0.00443 | 1.08e-07
303.15 K | 0.00272 | 0.00546 | 1.38e-07
303.16 K | – | 0.00546 | 1.38e-07
308.15 K | 0.0035 | 0.00673 | 1.83e-07
308.16 K | – | 0.00674 | 1.83e-07
313.15 K | 0.00438 | 0.0083 | 2.38e-07
313.16 K | – | 0.0083 | 2.38e-07
318.15 K | – | 0.0101 | 2.91e-07
318.16 K | – | 0.0101 | 2.91e-07
323.15 K | – | 0.0121 | 3.81e-07
323.16 K | – | 0.0121 | 3.81e-07
328.15 K | – | 0.0148 | 4.79e-07
328.16 K | – | 0.0148 | 4.79e-07
